Assay: solubility test in water by visual inspection
Assay type: physicochemical
Conditions: room temperature (RT), one atmosphere, ultrasonic irradiation
Description: In this example, the solubility of the organic compound that can be used in the display apparatus of one embodiment of the present invention is described. Note that the solubility test was conducted at a pressure of one atmosphere at room temperature (RT).
(§1) Into a 110 mL sample bottle, 1.22 mg of 2tiiSF was put and 10 mL of water was added thereto. This mixture was irradiated with ultrasonic waves for one minute. A precipitated white powder was found by visual inspection for an insoluble residue. After further addition of 10 mL of water and one-minute ultrasonic wave irradiation, a precipitated white powder was found by visual inspection. This procedure was repeated until the dissolution was confirmed by visual inspection.
The precipitated white powder was found until the total amount of water reached 100 mL.
as §1, with “1.08” for “1.22”, “2hppSF” for “2tiiSF”
The precipitated white powder was found until the total amount of water reached 50 mL. […]

## c1ccc2c(c1)-c1ccccc1C21c2ccccc2-c2ccc(N3CCN4CCN=C43)cc21 [2tiiSF, 1-(9,9′-spirobi[9H-fluoren]-2-yl)-2,3,5,6-tetrahydro-1H-imidazo[1,2-a]imidazole]
  weight which can be dissolved in 1.0 mL of water: less than 0.012 mg
